Marks after values point to notes of the source that are not given here.
Legend:
[1] = Intravenous administration to cattle: serum non-esterified fatty acid (NEFA) and serum urea nitrogen (SUN) levels; format: in vivo; conditions: for ΔNEFA 24 Hours / change in vivo at 0.04 mg/kg: 40 μg per kilogram i.v. twice; for ΔNEFA 24 Hours: T+24 h minus T=0; for ΔNEFA 24 Hours / ΔNEFA 15 Min. / change in vivo at 0.04 mg/kg: mean of five animals; for ΔNEFA 15 Min.: 40 μg per kilogram i.v., T+15 min minus T=0; for change in vivo at 0.04 mg/kg: Bos taurus, iv, 24 hours post treatment vs baseline T=0, read-out: Δ% SUN 24 Hours; for lipolytic effects (non-esterified fatty acid levels): fifteen minutes and twenty-four hours after administration; for anabolic effects (change in serum urea nitrogen levels): twenty-four hours after administration, compared with the corresponding carboxamide regioisomers
Description: Intravenous administration of the compounds of the present invention to cattle increases serum non-esterified fatty acids and decreases serum urea. In this Example, angus/angus cross calves, both heifers and steers, weighing approximately 282 pounds (128 kg) initially to 788 pounds (357.8 kg) over the course of these studies, were placed in pens at 5 calves per pen. The cattle were acclimated to the pens for at least 1 week prior to initiating the study.
Calves were fed ad libitum twice daily, (approximately 6-15 pounds (2.7-6.8 kg)/day). During the treatment day, in the A.M. period, the feeding times were staggered to ensure that all animals were fed approximately one hour before the treatments were administered. During the P.M. treatment period, the cattle were fed immediately after receiving the P.M. injection.
After taking a pretreatment (T=O) blood sample from each animal, a 40 μg per kilogram dose of a test compound was administered intravenously in the jugular vein at 6:30 A.M. and 2:30 P.M. Each test compound was administered at a concentration of 1.00-1.25 mg/ml in a treatment vehicle that was a 50/50 mixture of polyethylene glycol 200/water.
A blood sample was taken at fifteen minutes post-treatment (T+15 min). The calves were returned to their respective pens until their next treatment, approximately eight hours later. The next morning at 6:30 A.M. a blood sample was collected from all calves at 24 hours post-treatment (T+24 h). All blood samples were analyzed for the non-esterified fatty acid level (NEFA) and serum urea nitrogen level (SUN). The post-treatment NEFA and SUN levels in each individual animal were compared with the levels found before treatment.

[2] = Weight gain, feed efficiency and carcass characteristics, last 14 days of growing period in broiler chickens; format: in vivo
Description: Approximately 1500 Peterson-Hubbard, day-old, male chicks were used in a randomized, complete-block design with 4 treatments (Control, Clenbuterol at 1 PPM, and Compound 6 at 3 and 15 PPM (mg/kg feed)). The testing facility contained 36 pens, divided equally into 6 blocks. Treatments were randomly allotted to pens within each block. Each treatment consisted of 6 pens with 10 birds per pen.
Day-of-age birds were obtained from Pine Manor Hatchery in Goshen, Ind. Approximately 40 birds per pen were set at random upon receipt. On day 30 of the growout period, all birds were weighed and the 15 birds closest to the block mean were selected. These birds were allowed to acclimate until day 35 of age. On that day, all remaining birds were weighed again, and the 10 birds/pen closest to the block mean were chosen for the treatment phase. Birds were provided ad libitum access to feed and water throughout the trial. All birds were fed a 23% crude protein corn-soy ration from day 1 until day 18 of age. The feed was changed to a 20% crude protein corn-soy ration from day 18 to day 49. The treatment feed was mixed using the same 20% crude protein basal ration. Treatments were administered in the feed from day 35 through day 49. Feed consumption was calculated over the entire 14-day treatment period. Birds were weighed at trial completion (day 49), and transported to Purdue University, West Lafayette, Ind. 47907, U.S.A. meat laboratory for slaughter and carcass measurements on day 50. Weights of the hot carcass, fat pad, and viscera were taken on all animals.

## CC(C)(Cc1ccc(Oc2ncccc2C(N)=O)cc1)NC[C@H](O)COc1cccc2[nH]c(=S)[nH]c12 [Compound 4]
[1]
  ΔNEFA 24 Hours: 265.3 µmol/L
  ΔNEFA 15 Min.: 283.1 µmol/L
  change in vivo at 0.04 mg/kg: -57%
  lipolytic effects (non-esterified fatty acid levels): modest lipolytic effects
  anabolic effects (change in serum urea nitrogen levels): significantly greater

## CC(C)(Cc1ccc(Oc2ccc(C(N)=O)cn2)cc1)NC[C@H](O)COc1cccc2[nH]ccc12 [Compound 5]
[1]
  ΔNEFA 24 Hours: -5.6 µmol/L
  ΔNEFA 15 Min.: 170.8 µmol/L
  change in vivo at 0.04 mg/kg: -28.6%

## CC(C)(Cc1ccc(Oc2ccc(C(N)=O)cn2)cc1)NC[C@H](O)COc1cccc2[nH]ncc12 [Compound 1]
[1]
  ΔNEFA 24 Hours: 820.9 µmol/L
  ΔNEFA 15 Min.: 554.4 µmol/L
  change in vivo at 0.04 mg/kg: -28.7%

## CC(C)(Cc1ccc(Oc2ccc(C(N)=O)cn2)cc1)NC[C@H](O)COc1cccc2[nH]c(=O)[nH]c12 [Compound 7]
[1]
  ΔNEFA 24 Hours: -4.2 µmol/L
  ΔNEFA 15 Min.: 134.1 µmol/L
  change in vivo at 0.04 mg/kg: -9.7%

## CC(C)(Cc1ccc(Oc2ccccc2C(N)=O)cc1)NC[C@H](O)COc1cccc2[nH]ccc12 [Compound 9]
[1]
  ΔNEFA 24 Hours: -15.4 µmol/L
  ΔNEFA 15 Min.: 99 µmol/L
  change in vivo at 0.04 mg/kg: -37%

## CC(C)(Cc1ccc(Oc2ncccc2C(N)=O)cc1)NC[C@H](O)COc1cccc2[nH]c(=O)[nH]c12 [Compound 8]
[1]
  ΔNEFA 24 Hours: 35.6 µmol/L
  ΔNEFA 15 Min.: 321.4 µmol/L
  change in vivo at 0.04 mg/kg: -14.2%
  lipolytic effects (non-esterified fatty acid levels): modest lipolytic effects
  anabolic effects (change in serum urea nitrogen levels): significantly greater

## CC(C)(Cc1ccc(Oc2cccc(Cl)c2C(N)=O)cc1)NC[C@H](O)COc1cccc2[nH]c(C#N)cc12 [Compound 13]
[1]
  ΔNEFA 24 Hours: 32.1 µmol/L
  ΔNEFA 15 Min.: 118.1 µmol/L
  change in vivo at 0.04 mg/kg: -36.7%

## CC(C)(C)NCC(O)c1cc(Cl)c(N)c(Cl)c1 (stereo not drawn) [Clenbuterol, reference compound]
[2]; 1 PPM in feed, day 35-49
  Dressing Percentage: 72.77**
  Fat Pad Weight: 26.86 g
  Final Weight: 3.02 kg
  Hot Carcass Weights: 2191.64** g
  Pen Feed Intake: 25.20 kg
  Total 14 day Weight Gain: 1.29 kg
  Viscera Weight: 285.45 g
[2]; 1 PPM in feed, day 35-49, pen feed intake/total pen weight
  Feed Efficiency F/G: 1.99
[2]; 1 PPM, 14-day treatment period, P=0.1430
  increase in weight gain over control: 2.38%
[2]; 1 PPM, 14-day treatment period, P=0.7320
  improvement of feed efficiency versus control: 0.50%
[2]; 1 PPM, P=0.0027
  increase in hot carcass weights compared to control: 3.25%
[2]; 1 PPM, P=0.7215
  decrease in viscera weights with respect to control: 0.66%

## CC(C)(Cc1ccc(Oc2ncccc2C(N)=O)cc1)NC[C@H](O)COc1cccc2[nH]ncc12 [Compound 2]
[1]
  ΔNEFA 24 Hours: 742.4 µmol/L
  ΔNEFA 15 Min.: 141.2 µmol/L
  change in vivo at 0.04 mg/kg: -39.3%
  lipolytic effects (non-esterified fatty acid levels): modest lipolytic effects
  anabolic effects (change in serum urea nitrogen levels): significantly greater

## CC(C)(Cc1ccc(Oc2ccc(C(N)=O)cn2)cc1)NC[C@H](O)COc1cccc2[nH]c(=S)[nH]c12 [Compound 3]
[1]
  ΔNEFA 24 Hours: 200.2 µmol/L
  ΔNEFA 15 Min.: 379.4 µmol/L
  change in vivo at 0.04 mg/kg: -38.2%

## Cc1c[nH]c2cccc(OC[C@@H](O)CNC(C)(C)Cc3ccc(Oc4ncccc4C(N)=O)cc3)c12 [Compound 12]
[1]
  ΔNEFA 24 Hours: -63.7 µmol/L
  ΔNEFA 15 Min.: 332.6 µmol/L
  change in vivo at 0.04 mg/kg: -30.1%

## CC(C)(Cc1ccc(Oc2cccc(Cl)c2C(N)=O)cc1)NC[C@H](O)COc1cccc2[nH]ccc12 [Compound 10]
[1]
  ΔNEFA 24 Hours: -72.7 µmol/L
  ΔNEFA 15 Min.: 52.7 µmol/L
  change in vivo at 0.04 mg/kg: -20.7%

## CC(C)(Cc1ccc(Oc2ccc(Cl)cc2C(N)=O)cc1)NC[C@H](O)COc1cccc2[nH]ccc12 [Compound 11]
[1]
  ΔNEFA 24 Hours: -14.1 µmol/L
  ΔNEFA 15 Min.: 94 µmol/L
  change in vivo at 0.04 mg/kg: -39.4%
